Results published in patent publication US10647675B2 (priority 2015, dated 2020).
≈ marks a conversion by molar mass, not a printed value.

Legend:
[1] = test system: Trichophyton mentagrophytes SM-110; assay: Antifungal activity evaluation test: minimum inhibitory concentration (MIC), broth dilution by reference to CLSI M38-A2; format: cell-based; conditions: SM110, read-out: MIC (T. menta.)
Method in brief: (§1)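 Broth microdilution after CLSI M38-A2: 2-fold DMSO dilution series in MOPS-buffered RPMI 1640 pH 7.0, inoculum 2×10^3 cells/mL final. Incubated 35° C for 4 days; MIC (μg/mL) is lowest concentration giving visually ≥80% growth inhibition versus growth control.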

[2] = test system: Trichophyton rubrum KD-1130; assay: as above; format: cell-based; conditions: KD1130, read-out: MIC (T. rubrum)
Method in brief: as §1

Row | MIC [1] [µg/mL] | MIC [2] [µg/mL] | SMILES
1 | ≤ 0.1 | ≤ 0.1 | CC(F)(F)c1ccc(Oc2ncncc2-c2cccc3c2OCC3)cn1 [I-335, 4-{[6-(1,1-difluoroethyl)pyridin-3-yl]oxy}-5-(2,3-dihydrobenzofuran-7-yl)pyrimidine]
2 | ≤ 0.1 | ≤ 0.1 | Cc1nsc(-c2cccnc2Oc2ccc(C(F)(F)F)nc2)c1Br [I-377, 4-bromo-3-methyl-5-(2-{[6-(trifluoromethyl)pyridin-3-yl]oxy}pyridin-3-yl)isothiazole]
3 | ≤ 0.1 | ≤ 0.1 | COc1c(F)cncc1-c1cccnc1Oc1ccc(C(F)(F)F)cc1 [I-212, 5′-fluoro-4′-methoxy-2-[4-(trifluoromethyl)phenoxy]-3,3′-bipyridine]
4 | ≤ 0.1 | ≤ 0.1 | COc1ccccc1-c1cccnc1Oc1cnc2c(c1)CCCC2 [I-134, 3-{[3-(2-methoxyphenyl)pyridin-2-yl]oxy}-5,6,7,8-tetrahydroquinoline]
5 | ≤ 0.1 | ≤ 0.1 | COc1ccc(-c2cccnc2Oc2ccc(C(F)F)nc2)c(OC)n1 [I-78, 2′-{[6-(difluoromethyl)pyridin-3-yl]oxy}-2,6-dimethoxy-3,3′-bipyridine]
6 | 1.56 to 6.25 (≈ 4.71 to 18.9 µM) | 1.56 to 6.25 (≈ 4.71 to 18.9 µM) | Nc1ccccc1-c1cccnc1Oc1ccc(C(F)(F)F)nc1 [I-61, 2-(2-{[6-(trifluoromethyl)pyridin-3-yl]oxy}pyridin-3-yl)-aniline]
7 | ≤ 0.1 | ≤ 0.1 | COc1ccccc1-c1cccnc1Sc1ccc(C(F)(F)F)cc1 [I-436, 3-(2-methoxyphenyl)-2-{[4-(trifluoromethyl)phenyl]thio}pyridine]
8 | ≤ 0.1 | ≤ 0.1 | COc1ncncc1-c1cccnc1Oc1ccc2c(c1)CCCC2 [I-271, 4′-methoxy-5-{2-[(5,6,7,8-tetrahydronaphthalen-2-yl)oxy]pyridin-3-yl}pyrimidine]
9 | 0.2 to 0.78 (≈ 0.637 to 2.49 µM) | 1.56 to 6.25 (≈ 4.97 to 19.9 µM) | COc1ccncc1-c1cncnc1Oc1ccc(Cl)cc1 [I-357, 4-(4-chlorophenoxy)-5-(4-methoxypyridin-3-yl)pyrimidine]
10 | 0.2 to 0.78 (≈ 0.552 to 2.15 µM) | 0.2 to 0.78 (≈ 0.552 to 2.15 µM) | COCC1(c2ccc(Oc3ncccc3-c3cnccc3OC)cc2)CC1 [I-276, 4′-methoxy-2-{4-[1-(methoxymethyl)cyclopropyl]phenoxy}-3,3′-bipyridine]
11 | ≤ 0.1 | ≤ 0.1 | Cc1ccncc1-c1cccnc1Oc1ccc(C(C)(F)F)cc1 [I-299, 2-[4-(1,1-difluoroethyl)-phenoxy]-4′-methyl-3,3′-bipyridine]
12 | ≤ 0.1 | ≤ 0.1 | CCCc1ccc(Oc2ncccc2-c2cnccc2OC)cc1 [I-254, 4′-methoxy-2-(4-propylphenoxy)-3,3′-bipyridine]
13 | 0.2 to 0.78 (≈ 0.501 to 1.95 µM) | 0.2 to 0.78 (≈ 0.501 to 1.95 µM) | CCN(C)CC(F)(F)c1ccc(Oc2ncccc2-c2ccccc2OC)cn1 [I-149, N-ethyl-2,2-difluoro-2-(5-{[3-(2-methoxyphenyl)pyridin-2-yl]oxy}-pyridin-2-yl)-N-methylethanamine]
14 | ≤ 0.1 | ≤ 0.1 | Fc1ccccc1-c1cccnc1Oc1ccc(C(F)(F)F)nc1 [I-3, 3-(2-fluorophenyl)-2-{[6-(trifluoromethyl)pyridin-3-yl]oxy}pyridine]
15 | ≤ 0.1 | ≤ 0.1 | COc1cc(F)ccc1-c1cccnc1Oc1ccc(Cl)nc1 [I-366]
16 | ≤ 0.1 | ≤ 0.1 | COc1cc(F)c(F)cc1-c1cccnc1Oc1ccc(C(F)F)nc1 [I-76, 3-(4,5-difluoro-2-methoxyphenyl)-2-{[6-(difluoromethyl)pyridin-3-yl]oxy}pyridine]
17 | 1.56 to 6.25 (≈ 4.1 to 16.4 µM) | 1.56 to 6.25 (≈ 4.1 to 16.4 µM) | COc1ccncc1-c1cc(Cl)cnc1Oc1ccc(C(F)(F)F)cc1 [I-217, 5-chloro-4′-methoxy-2-[4-(trifluoromethyl)phenoxy]-3,3′-bipyridine]
18 | ≤ 0.1 | ≤ 0.1 | FC(F)(F)c1ccc(Oc2ncccc2-c2ccnc3cccnc23)cc1 [I-226, 4-{2-[4-(trifluoromethyl)phenoxy]pyridin-3-yl}-1,5-naphthyridine]
19 | ≤ 0.1 | ≤ 0.1 | COc1ccncc1-c1cccnc1Oc1ccc2c(c1)CCC2 [I-266, 2-[(2,3-dihydro-1H-inden-5-yl)oxy]-4′-methoxy-3,3′-bipyridine]
20 | ≤ 0.1 | ≤ 0.1 | COc1cc(F)c(F)cc1-c1cncnc1Oc1ccc(C(F)(F)F)nc1 [I-328, 5-(4,5-difluoro-2-methoxyphenyl)-4-{[6-(trifluoromethyl)pyridin-3-yl]oxy}pyrimidine]
21 | 1.56 to 6.25 (≈ 5.26 to 21.1 µM) | 1.56 to 6.25 (≈ 5.26 to 21.1 µM) | COc1ccncc1-c1cccnc1Oc1ccc(F)cc1 [I-236, 2-(4-fluorophenoxy)-4′-methoxy-3,3′-bipyridine]
22 | ≤ 0.1 | ≤ 0.1 | COCC(F)(F)c1ccc(Oc2ncccc2-c2ccccc2OC)cn1 [I-145, 2-{[6-(1,1-difluoro-2-methoxyethyl)pyridin-3-yl]oxy}-3-(2-methoxyphenyl)pyridine]

Row | MIC [1] [µg/mL] | MIC [2] [µg/mL] | SMILES
23 | ≤ 0.1 | ≤ 0.1 | CCc1ccccc1-c1cccnc1Oc1ccc(C(F)(F)F)nc1 [I-16, 3-(2-ethylphenyl)-2-{[6-(trifluoromethyl)pyridin-3-yl]oxy}pyridine]
24 | ≤ 0.1 | ≤ 0.1 | COc1ccncc1-c1cc(F)cnc1Oc1ccc(C(F)(F)F)cc1 [I-216, 5-fluoro-4′-methoxy-2-[4-(trifluoromethyl)phenoxy]-3,3′-bipyridine]
25 | 1.56 to 6.25 (≈ 4.25 to 17 µM) | 1.56 to 6.25 (≈ 4.25 to 17 µM) | FC(F)(F)c1ccc(Oc2ncccc2-c2cccc3cnccc23)cn1 [I-33, 5-(2-{[6-(trifluoromethyl)pyridin-3-yl]oxy}pyridin-3-yl)isoquinoline]
26 | ≤ 0.1 | ≤ 0.1 | COc1cccc(-c2cccnc2Oc2ccc(Cl)cc2)c1 [I-200, 2-(4-chlorophenoxy)-3-(3-methoxyphenyl)pyridine]
27 | ≤ 0.1 | ≤ 0.1 | COc1ncncc1-c1cccnc1Oc1ccc(C(F)(F)F)cc1 [I-219, 4-methoxy-5-{2-[4-(trifluoromethyl)phenoxy]pyridin-3-yl}pyrimidine]
28 | 0.2 to 0.78 (≈ 0.539 to 2.1 µM) | 1.56 to 6.25 (≈ 4.2 to 16.8 µM) | CNCC(F)(F)c1ccc(Oc2ncccc2-c2ccccc2OC)cn1 [I-146, 2,2-difluoro-2-(5-{[3-(2-methoxyphenyl)pyridin-2-yl]oxy}-pyridin-2-yl)-N-methylethanamine]
29 | ≤ 0.1 | ≤ 0.1 | COc1cc(F)ccc1-c1cccnc1Oc1ccc(C(F)(F)Cn2cccn2)nc1 [I-157, 2-{(6-[1,1-difluoro-2-(1H-pyrazol-1-yl)ethyl]pyridin-3-yl)oxy}-3-(4-fluoro-2-methoxyphenyl)pyridine]
30 | ≤ 0.1 | ≤ 0.1 | COCC(F)(F)c1ccc(Oc2ncccc2-c2cc(Cl)ccc2OC)cn1 [I-163, 3-(5-chloro-2-methoxyphenyl)-2-{[6-(1,1-difluoro-2-methoxyethyl)pyridin-3-yl]oxy}pyridine]
31 | ≤ 0.1 | ≤ 0.1 | Cc1ccncc1-c1cccnc1Oc1ccc(C(C)(F)F)cc1F [I-303, 2-[4-(1,1-difluoroethyl)-2-fluorophenoxy]-4′-methyl-3,3′-bipyridine]
32 | ≤ 0.1 | ≤ 0.1 | Fc1ccc(-c2cccnc2Oc2ccc(C(F)(F)F)nc2)c(F)c1 [I-8, 3-(2,4-difluorophenyl)-2-{[6-(trifluoromethyl)pyridin-3-yl]oxy}pyridine]
33 | ≤ 0.1 | ≤ 0.1 | CCc1ccc(Oc2ncccc2-c2cnccc2OC)cc1F [I-392, 2-(4-ethyl-3-fluorophenoxy)-4′-methoxy-3,3′-bipyridine]
34 | ≤ 0.1 | ≤ 0.1 | COc1cc(F)ccc1-c1cccnc1Oc1cnc(N(C)Cc2cocn2)nc1 [I-193, 5-{[3-(4-fluoro-2-methoxyphenyl)pyridin-2-yl]oxy}-N-methyl-N-(oxazol-4-ylmethyl)pyrimidin-2-amine]
35 | ≤ 0.1 | ≤ 0.1 | CCCSc1ncc(Oc2ncccc2-c2ccc(F)cc2OC)cn1 [I-186, 2-(propylthio)-5-{[3-(4-fluoro-2-methoxyphenyl)pyridin-2-yl]oxy}-pyrimidine]
36 | 0.2 to 0.78 (≈ 0.604 to 2.35 µM) | 0.2 to 0.78 (≈ 0.604 to 2.35 µM) | CC(F)(F)c1ccc(Oc2ncccc2-c2ccncc2F)cn1 [I-92, 2-{[6-(1,1-difluoroethyl)pyridin-3-yl]oxy}-3′-fluoro-3,4′-bipyridine]
37 | 1.56 to 6.25 (≈ 4.11 to 16.5 µM) | 1.56 to 6.25 (≈ 4.11 to 16.5 µM) | CC(F)(F)c1ccc(Oc2ncccc2-c2cccnc2-n2ccnc2)cn1 [I-106, 2-{[6-(1,1-difluoroethyl)pyridin-3-yl]oxy}-2′-(1H-imidazol-1-yl)-3,3′-bipyridine]
38 | ≤ 0.1 | ≤ 0.1 | COc1cccc(F)c1-c1cccnc1Oc1ccc(C(F)(F)F)nc1 [I-10, 3-(2-fluoro-6-methoxyphenyl)-2-{[6-(trifluoromethyl)pyridin-3-yl]oxy}pyridine]
39 | 0.2 to 0.78 (≈ 0.518 to 2.02 µM) | 0.2 to 0.78 (≈ 0.518 to 2.02 µM) | FC(F)(F)c1ccc(Oc2ncccc2-c2ccccc2OCC2CC2)cn1 [I-57, 3-[2-(cyclopropylmethoxy)phenyl]-2-{[6-(trifluoromethyl)pyridin-3-yl]oxy}pryidine]
40 | 0.2 to 0.78 (≈ 0.561 to 2.19 µM) | 0.2 to 0.78 (≈ 0.561 to 2.19 µM) | FC(F)(F)c1ccc(Oc2ncccc2-n2ccc3cccnc32)cn1 [I-50, 1-(2-{[6-(trifluoromethyl)pyridin-3-yl]oxy}pyridin-3-yl)-1H-pyrrolo[2,3-b]pryidine]
41 | ≤ 0.1 | ≤ 0.1 | CCn1cc(CCc2ccc(Oc3ncccc3-c3cccnc3OC)cc2)cn1 [I-404, 2-{4-[2-(1-ethyl-1H-pyrazol-4-yl)ethyl]phenoxy}-2′-methoxy-3,3′-bipyridine]
42 | ≤ 0.1 | ≤ 0.1 | C#CCOCC(F)(F)c1ccc(Oc2ncccc2-c2ccccc2OC)cn1 [I-160, 2-({6-[1,1-difluoro-2-(2-propyl-1-yloxy)ethyl]pyridin-3-yl}oxy)-3-(2-methoxyphenyl)pyridine]
43 | ≤ 0.1 | ≤ 0.1 | COc1ncccc1-c1nccnc1Oc1ccc(OCc2ccccc2)cc1 [I-318, 2-[4-(benzyloxy)phenoxy]-3-(2-methoxypyridin-3-yl)pyrazine]
